Source: paper PMC5564600 (Oncotarget, 2017)

Legend:
Test in all cases: biochemical
Type in all cases: binding
panel of 442 kinases [1] = biological target: T1, panel of 442 kinases (Homo sapiens, UniProt P00533, G719S); details: EGFR(G719S); for remaining activity at 1 µM: read-out: % of control at 1 µM
T1 construct: purchased Ambit Biosciences (scanMAXX KINOMEscan)

panel of 442 kinases [2] = biological target: T2, panel of 442 kinases (Homo sapiens, UniProt P29317); details: EPHA2; for remaining activity at 1 µM: read-out: % of control at 1 µM
T2 construct: purchased Ambit Biosciences (scanMAXX KINOMEscan)

panel of 442 kinases [3] = biological target: T3, panel of 442 kinases (Homo sapiens, UniProt P35590); details: kinase TIE1; for remaining activity at 1 µM: read-out: TIE1 (% of control at 1 µM)
T3 construct: purchased Ambit Biosciences (scanMAXX KINOMEscan)

panel of 442 kinases [4] = biological target: T4, panel of 442 kinases (Homo sapiens, UniProt P53671); details: kinase LIMK2; for remaining activity at 1 µM: read-out: % of control at 1 µM
T4 construct: purchased Ambit Biosciences (scanMAXX KINOMEscan)

panel of 442 kinases [5] = biological target: T5, panel of 442 kinases (Homo sapiens, UniProt P78362); details: kinase SRPK2; for remaining activity at 1 µM: read-out: SRPK2 (% of control at 1 µM)
T5 construct: purchased Ambit Biosciences (scanMAXX KINOMEscan)

panel of 442 kinases [6] = biological target: T6, panel of 442 kinases (Homo sapiens, UniProt Q15835); details: kinase GRK1; for remaining activity at 1 µM: read-out: % of control at 1 µM
T6 construct: purchased Ambit Biosciences (scanMAXX KINOMEscan)
T6 sequence (Q15835 1-563): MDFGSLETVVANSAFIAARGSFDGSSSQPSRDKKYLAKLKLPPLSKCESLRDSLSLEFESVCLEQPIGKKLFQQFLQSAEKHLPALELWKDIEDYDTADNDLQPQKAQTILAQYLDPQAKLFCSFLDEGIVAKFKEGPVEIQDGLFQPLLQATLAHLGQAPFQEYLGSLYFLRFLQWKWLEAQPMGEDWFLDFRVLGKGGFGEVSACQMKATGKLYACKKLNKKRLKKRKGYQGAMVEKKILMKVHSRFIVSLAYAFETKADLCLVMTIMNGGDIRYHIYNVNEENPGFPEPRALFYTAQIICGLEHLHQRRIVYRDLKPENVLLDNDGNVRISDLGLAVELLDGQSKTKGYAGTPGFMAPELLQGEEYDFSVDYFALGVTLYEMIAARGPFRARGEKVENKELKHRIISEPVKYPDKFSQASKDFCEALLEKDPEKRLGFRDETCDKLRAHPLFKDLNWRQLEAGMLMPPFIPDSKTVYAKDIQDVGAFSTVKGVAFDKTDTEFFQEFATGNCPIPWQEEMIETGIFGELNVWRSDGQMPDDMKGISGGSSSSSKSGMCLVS

panel of 442 kinases [7] = biological target: T7, panel of 442 kinases (Homo sapiens, UniProt Q6XUX3); details: kinase RIPK5; for remaining activity at 1 µM: read-out: RIPK5 (% of control at 1 µM)
T7 construct: purchased Ambit Biosciences (scanMAXX KINOMEscan)
T7 sequence (Q6XUX3 1-929): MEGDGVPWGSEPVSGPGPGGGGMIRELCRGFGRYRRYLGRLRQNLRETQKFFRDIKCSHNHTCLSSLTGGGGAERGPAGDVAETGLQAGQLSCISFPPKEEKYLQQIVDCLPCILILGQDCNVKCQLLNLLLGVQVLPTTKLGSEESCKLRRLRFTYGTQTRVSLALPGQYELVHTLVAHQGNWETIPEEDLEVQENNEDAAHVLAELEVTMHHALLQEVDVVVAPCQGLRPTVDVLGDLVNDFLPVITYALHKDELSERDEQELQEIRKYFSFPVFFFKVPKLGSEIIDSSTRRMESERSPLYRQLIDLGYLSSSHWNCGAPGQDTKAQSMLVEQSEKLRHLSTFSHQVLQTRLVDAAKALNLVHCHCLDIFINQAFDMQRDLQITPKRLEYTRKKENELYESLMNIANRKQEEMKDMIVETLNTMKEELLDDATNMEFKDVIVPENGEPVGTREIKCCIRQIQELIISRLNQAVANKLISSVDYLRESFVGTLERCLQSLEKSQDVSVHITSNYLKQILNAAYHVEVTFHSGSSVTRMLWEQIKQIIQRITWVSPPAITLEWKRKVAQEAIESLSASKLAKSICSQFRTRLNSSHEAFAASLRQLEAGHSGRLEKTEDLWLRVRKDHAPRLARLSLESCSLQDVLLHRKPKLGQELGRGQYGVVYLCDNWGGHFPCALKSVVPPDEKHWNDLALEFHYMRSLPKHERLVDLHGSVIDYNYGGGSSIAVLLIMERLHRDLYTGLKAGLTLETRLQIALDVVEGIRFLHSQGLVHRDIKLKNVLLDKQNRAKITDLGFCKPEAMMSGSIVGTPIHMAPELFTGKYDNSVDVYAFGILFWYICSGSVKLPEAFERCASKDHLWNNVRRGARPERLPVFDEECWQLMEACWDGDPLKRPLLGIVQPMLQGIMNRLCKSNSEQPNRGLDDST

panel of 442 kinases [8] = biological target: T8, panel of 442 kinases (Homo sapiens, UniProt Q9UQM7); details: CAMK2A; for remaining activity at 1 µM: read-out: % of control at 1 µM
T8 construct: purchased Ambit Biosciences (scanMAXX KINOMEscan)

panel of 442 kinases [9] = biological target: T9, panel of 442 kinases (Homo sapiens, UniProt P48736); details: kinase PIK3CG; 1 µM; read-out: % of control at 1 µM
T9 construct: purchased Ambit Biosciences (scanMAXX KINOMEscan)

[10] = 10 µM, read-out: % of control at 10 µM

T2 sequence (P29317 24-976): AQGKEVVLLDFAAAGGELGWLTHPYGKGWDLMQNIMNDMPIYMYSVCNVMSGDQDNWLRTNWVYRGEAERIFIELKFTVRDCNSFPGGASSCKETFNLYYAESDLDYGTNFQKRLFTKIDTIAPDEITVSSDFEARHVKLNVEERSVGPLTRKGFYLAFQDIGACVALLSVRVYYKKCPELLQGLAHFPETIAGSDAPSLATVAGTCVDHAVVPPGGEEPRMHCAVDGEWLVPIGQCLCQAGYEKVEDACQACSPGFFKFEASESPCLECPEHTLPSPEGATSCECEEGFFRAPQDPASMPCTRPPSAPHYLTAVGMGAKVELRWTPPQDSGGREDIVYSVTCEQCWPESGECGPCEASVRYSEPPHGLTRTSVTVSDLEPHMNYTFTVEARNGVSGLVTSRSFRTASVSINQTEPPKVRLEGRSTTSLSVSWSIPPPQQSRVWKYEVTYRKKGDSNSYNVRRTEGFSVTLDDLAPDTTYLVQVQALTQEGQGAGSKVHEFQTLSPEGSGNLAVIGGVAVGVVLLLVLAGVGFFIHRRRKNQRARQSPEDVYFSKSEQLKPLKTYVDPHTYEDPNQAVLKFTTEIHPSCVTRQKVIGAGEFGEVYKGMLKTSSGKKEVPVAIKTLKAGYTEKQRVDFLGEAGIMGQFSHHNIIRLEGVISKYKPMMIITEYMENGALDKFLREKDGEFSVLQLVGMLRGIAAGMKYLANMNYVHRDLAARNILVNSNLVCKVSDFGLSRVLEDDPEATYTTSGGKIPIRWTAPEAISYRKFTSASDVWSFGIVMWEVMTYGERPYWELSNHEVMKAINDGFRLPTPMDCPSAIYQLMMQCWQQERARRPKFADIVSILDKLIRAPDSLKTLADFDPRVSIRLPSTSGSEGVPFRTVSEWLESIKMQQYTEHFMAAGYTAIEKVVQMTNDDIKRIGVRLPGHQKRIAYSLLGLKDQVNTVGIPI
T9 sequence (P48736 whole entry): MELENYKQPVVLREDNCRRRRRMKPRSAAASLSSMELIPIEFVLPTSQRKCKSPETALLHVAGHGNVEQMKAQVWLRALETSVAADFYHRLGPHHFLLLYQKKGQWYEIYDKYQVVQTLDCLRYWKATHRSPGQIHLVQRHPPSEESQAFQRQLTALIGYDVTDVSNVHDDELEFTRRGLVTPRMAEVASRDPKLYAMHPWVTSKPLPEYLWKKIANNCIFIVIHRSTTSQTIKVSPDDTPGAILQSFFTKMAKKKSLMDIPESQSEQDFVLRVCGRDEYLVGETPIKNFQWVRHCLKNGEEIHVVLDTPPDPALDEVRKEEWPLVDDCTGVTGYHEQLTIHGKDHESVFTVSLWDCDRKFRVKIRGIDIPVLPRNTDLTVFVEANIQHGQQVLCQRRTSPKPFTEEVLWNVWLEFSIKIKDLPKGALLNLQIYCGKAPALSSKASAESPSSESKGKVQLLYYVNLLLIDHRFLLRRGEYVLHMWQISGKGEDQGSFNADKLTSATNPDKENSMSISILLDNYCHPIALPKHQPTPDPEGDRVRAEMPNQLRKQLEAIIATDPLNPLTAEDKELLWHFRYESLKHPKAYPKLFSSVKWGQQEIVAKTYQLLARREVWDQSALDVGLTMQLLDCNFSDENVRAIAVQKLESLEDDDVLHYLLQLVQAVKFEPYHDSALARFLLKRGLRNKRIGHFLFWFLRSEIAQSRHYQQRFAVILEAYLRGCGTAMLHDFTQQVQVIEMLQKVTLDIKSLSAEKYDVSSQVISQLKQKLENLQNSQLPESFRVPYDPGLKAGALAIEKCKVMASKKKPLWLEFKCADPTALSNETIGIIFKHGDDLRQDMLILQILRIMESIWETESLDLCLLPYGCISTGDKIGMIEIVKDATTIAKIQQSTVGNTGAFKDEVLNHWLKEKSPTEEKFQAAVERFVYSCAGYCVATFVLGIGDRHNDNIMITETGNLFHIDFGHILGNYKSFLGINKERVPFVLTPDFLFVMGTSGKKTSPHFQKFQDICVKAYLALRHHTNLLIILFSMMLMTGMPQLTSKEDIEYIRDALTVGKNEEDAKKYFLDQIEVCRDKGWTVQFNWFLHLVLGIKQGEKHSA
T3 sequence (P35590 22-1138): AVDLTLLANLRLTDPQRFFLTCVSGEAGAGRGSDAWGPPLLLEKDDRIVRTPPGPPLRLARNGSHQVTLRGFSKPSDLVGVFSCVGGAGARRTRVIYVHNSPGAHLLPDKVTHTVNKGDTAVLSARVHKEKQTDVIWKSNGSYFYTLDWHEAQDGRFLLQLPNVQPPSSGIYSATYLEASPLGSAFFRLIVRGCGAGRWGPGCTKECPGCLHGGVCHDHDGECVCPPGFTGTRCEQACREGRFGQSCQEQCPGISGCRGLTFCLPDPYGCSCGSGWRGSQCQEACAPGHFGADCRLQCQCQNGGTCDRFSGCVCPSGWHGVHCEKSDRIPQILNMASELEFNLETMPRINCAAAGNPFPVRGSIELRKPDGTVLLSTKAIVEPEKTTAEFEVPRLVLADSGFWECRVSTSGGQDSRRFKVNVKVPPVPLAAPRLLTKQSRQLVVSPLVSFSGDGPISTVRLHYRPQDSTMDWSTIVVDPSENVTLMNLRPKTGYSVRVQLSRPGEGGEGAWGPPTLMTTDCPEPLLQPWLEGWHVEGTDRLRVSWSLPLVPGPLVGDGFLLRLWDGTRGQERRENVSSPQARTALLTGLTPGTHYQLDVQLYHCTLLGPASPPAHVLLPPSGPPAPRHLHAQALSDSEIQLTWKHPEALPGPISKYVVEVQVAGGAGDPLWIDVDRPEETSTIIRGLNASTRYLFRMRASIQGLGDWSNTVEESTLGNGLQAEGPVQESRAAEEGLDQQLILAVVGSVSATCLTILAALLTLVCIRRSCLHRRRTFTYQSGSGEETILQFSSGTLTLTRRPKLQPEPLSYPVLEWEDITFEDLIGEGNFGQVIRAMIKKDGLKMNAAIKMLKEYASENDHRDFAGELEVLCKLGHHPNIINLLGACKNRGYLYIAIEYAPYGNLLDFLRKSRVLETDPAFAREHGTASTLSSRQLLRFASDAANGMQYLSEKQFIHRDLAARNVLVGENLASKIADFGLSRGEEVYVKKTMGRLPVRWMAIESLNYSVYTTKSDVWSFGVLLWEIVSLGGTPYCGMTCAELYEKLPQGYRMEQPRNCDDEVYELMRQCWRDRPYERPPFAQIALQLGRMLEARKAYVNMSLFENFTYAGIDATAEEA
T5 sequence (P78362 whole entry): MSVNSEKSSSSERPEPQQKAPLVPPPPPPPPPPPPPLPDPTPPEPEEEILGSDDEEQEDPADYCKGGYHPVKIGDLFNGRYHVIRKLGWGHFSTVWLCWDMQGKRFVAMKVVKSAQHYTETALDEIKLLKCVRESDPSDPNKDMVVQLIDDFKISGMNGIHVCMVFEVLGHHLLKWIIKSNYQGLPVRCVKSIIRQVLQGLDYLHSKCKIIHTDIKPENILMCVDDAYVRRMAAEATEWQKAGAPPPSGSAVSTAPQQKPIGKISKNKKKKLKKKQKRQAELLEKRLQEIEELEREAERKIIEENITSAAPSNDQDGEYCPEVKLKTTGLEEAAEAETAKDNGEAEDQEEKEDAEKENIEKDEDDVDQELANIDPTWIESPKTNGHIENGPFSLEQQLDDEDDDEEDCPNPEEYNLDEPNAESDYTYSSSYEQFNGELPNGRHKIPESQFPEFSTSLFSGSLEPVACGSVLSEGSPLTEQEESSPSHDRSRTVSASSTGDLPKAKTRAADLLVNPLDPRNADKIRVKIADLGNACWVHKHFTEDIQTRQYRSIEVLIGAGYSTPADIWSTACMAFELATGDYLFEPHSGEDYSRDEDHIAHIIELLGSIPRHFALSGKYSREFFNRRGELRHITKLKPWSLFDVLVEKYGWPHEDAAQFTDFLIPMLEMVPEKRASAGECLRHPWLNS
T4 sequence (P53671 whole entry): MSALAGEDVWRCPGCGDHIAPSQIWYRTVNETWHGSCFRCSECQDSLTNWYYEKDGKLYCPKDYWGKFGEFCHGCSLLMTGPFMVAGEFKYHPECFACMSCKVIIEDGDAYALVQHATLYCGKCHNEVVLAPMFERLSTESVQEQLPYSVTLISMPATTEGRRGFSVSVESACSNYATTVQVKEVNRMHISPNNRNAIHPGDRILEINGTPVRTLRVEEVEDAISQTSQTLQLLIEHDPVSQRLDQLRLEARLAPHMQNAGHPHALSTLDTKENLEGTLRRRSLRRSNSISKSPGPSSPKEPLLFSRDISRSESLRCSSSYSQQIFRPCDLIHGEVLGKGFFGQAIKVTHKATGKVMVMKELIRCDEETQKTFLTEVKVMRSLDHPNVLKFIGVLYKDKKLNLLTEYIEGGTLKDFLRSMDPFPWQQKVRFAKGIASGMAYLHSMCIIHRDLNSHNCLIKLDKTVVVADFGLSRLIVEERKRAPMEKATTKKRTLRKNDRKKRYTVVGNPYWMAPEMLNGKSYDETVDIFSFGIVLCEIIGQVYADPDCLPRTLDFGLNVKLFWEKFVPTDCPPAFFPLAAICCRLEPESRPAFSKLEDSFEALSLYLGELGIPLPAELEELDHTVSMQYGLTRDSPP
T8 sequence (Q9UQM7 whole entry): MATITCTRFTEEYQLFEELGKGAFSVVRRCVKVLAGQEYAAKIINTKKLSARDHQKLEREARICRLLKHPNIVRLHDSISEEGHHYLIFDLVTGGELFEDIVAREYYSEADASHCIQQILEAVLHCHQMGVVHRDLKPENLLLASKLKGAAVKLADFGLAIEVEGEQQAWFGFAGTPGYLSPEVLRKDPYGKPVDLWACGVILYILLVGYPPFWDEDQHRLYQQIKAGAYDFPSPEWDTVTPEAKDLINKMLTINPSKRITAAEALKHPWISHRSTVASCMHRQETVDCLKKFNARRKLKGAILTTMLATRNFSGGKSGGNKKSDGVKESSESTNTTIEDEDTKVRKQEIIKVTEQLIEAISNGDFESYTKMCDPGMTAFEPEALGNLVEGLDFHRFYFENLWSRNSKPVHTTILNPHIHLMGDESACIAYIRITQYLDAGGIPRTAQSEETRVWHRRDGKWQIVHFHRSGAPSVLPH

SMILES	remaining activity at 1 µM (panel of 442 kinases [1]) [%]	remaining activity at 10 µM (panel of 442 kinases [1]; [10]) [%]	remaining activity at 1 µM (panel of 442 kinases [2]) [%]	remaining activity at 10 µM (panel of 442 kinases [2]; [10]) [%]	remaining activity at 1 µM (panel of 442 kinases [3]) [%]	remaining activity at 10 µM (panel of 442 kinases [3]; 10 µM, read-out: TIE1 (% of control at 10 µM)) [%]	remaining activity at 1 µM (panel of 442 kinases [4]) [%]	remaining activity at 10 µM (panel of 442 kinases [4]; [10]) [%]	remaining activity at 1 µM (panel of 442 kinases [5]) [%]	remaining activity at 10 µM (panel of 442 kinases [5]; 10 µM, read-out: SRPK2 (% of control at 10 µM)) [%]	remaining activity at 1 µM (panel of 442 kinases [6]) [%]	remaining activity at 10 µM (panel of 442 kinases [6]; [10]) [%]	remaining activity at 1 µM (panel of 442 kinases [7]) [%]	remaining activity at 10 µM (panel of 442 kinases [7]; 10 µM, read-out: RIPK5 (% of control at 10 µM)) [%]	remaining activity at 1 µM (panel of 442 kinases [8]) [%]	remaining activity at 10 µM (panel of 442 kinases [8]; [10]) [%]	remaining activity at 1 µM (panel of 442 kinases [9]) [%]
Nc1cc(C(F)(F)F)c(-c2cc(N3CCOCC3)nc(N3CCOCC3)n2)cn1 [Buparlisib]	100	95	100	100	96	100	100	100	78	100	100	100	100	89	100	100	
Cn1c(=O)n(-c2ccc(C(C)(C)C#N)cc2)c2c3cc(-c4cnc5ccccc5c4)ccc3ncc21 [Dactolisib, 2-methyl-2-[4-(3-methyl-2-oxo-8-quinolin-3-yl-2,3-dihydroimidazo[4,5-c]quinolin-1-yl)-phenyl] propionitrile]	99		96		100		91		100		100		80		90		38
COc1ncc(-c2ccc3nccc(-c4ccnnc4)c3c2)cc1NS(=O)(=O)c1ccc(F)cc1F [Omipalisib]	78		100		100		89		100		81		100		100		0
FC(F)c1nc2ccccc2n1-c1nc(N2CCOCC2)nc(N2CCOCC2)n1 [ZSTK474, 2-(difluoromethyl)-1-[4,6-di(4-morpholinyl)-1,3,5-triazin-2-yl]-1H-benzimidazole]	100		100		88		100		100		100		92		87		0
